Measured values as given in patent US11208412B2 (DAEGU-GYEONGBUK MEDICAL INNOVATION FOUNDATION, priority 2017, dated 2021).
Positions count from the first letter of the chain named.

Assays:
Assay in all cases: Kinase selectivity, DiscoverX scanMAX Kinase assay panel (% control)
Type in all cases: binding
[1] = target: T1, kinases of the scanMAX Kinase assay panel (Homo sapiens, UniProt P36888, K663Q); settings: FLT3(K663Q); 1 uM
T1 construct: purchased DiscoverX Co. (contract measurement) scanMAX Kinase assay panel
T1 sequence (P36888 27-993 K663Q): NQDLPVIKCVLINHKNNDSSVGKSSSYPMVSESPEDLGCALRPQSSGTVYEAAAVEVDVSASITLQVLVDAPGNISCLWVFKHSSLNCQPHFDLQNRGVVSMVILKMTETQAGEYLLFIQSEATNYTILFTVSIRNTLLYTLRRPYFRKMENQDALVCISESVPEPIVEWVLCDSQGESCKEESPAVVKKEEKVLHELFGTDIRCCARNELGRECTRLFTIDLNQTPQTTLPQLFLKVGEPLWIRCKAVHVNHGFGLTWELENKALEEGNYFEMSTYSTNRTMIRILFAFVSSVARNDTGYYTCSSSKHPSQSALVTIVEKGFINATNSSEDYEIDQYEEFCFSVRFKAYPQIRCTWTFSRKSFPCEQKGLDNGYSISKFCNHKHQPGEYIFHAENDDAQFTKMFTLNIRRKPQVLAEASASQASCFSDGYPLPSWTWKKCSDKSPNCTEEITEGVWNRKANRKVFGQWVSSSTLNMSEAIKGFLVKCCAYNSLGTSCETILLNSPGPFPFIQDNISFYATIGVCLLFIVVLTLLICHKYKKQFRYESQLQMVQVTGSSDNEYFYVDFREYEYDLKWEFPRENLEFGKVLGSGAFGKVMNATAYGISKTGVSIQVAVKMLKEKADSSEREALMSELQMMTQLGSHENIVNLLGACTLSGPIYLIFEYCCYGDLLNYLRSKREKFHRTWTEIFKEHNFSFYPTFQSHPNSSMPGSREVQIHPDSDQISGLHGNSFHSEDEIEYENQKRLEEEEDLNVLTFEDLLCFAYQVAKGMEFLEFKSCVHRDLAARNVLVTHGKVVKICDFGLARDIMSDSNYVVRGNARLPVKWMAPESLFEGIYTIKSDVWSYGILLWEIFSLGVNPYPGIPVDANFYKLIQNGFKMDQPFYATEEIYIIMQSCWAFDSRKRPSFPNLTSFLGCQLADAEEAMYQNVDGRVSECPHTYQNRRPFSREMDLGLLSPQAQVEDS
Procedure, shortened: (§1)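 Compounds tested at 1 uM against the scanMAX kinase panel. Signal expressed as % control = (compound − positive control)/(DMSO negative control − positive control) × 100, where positive control = 0% and DMSO = 100%; below 35% counted as activity on that kinase.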

[2] = target: T2, kinases of the scanMAX Kinase assay panel (Homo sapiens, UniProt Q8N568); settings: DCAMKL2; 1 uM
T2 construct: purchased DiscoverX Co. (contract measurement) scanMAX Kinase assay panel
Procedure, shortened: as §1

[3] = target: T3, kinases of the scanMAX Kinase assay panel (Homo sapiens, UniProt P00533, DEL752-759); settings: EGFR(S752-I759de1); 1 uM
T3 construct: purchased DiscoverX Co. (contract measurement) scanMAX Kinase assay panel
T3 sequence (P00533 with tags, fused parts or gaps DEL752-759): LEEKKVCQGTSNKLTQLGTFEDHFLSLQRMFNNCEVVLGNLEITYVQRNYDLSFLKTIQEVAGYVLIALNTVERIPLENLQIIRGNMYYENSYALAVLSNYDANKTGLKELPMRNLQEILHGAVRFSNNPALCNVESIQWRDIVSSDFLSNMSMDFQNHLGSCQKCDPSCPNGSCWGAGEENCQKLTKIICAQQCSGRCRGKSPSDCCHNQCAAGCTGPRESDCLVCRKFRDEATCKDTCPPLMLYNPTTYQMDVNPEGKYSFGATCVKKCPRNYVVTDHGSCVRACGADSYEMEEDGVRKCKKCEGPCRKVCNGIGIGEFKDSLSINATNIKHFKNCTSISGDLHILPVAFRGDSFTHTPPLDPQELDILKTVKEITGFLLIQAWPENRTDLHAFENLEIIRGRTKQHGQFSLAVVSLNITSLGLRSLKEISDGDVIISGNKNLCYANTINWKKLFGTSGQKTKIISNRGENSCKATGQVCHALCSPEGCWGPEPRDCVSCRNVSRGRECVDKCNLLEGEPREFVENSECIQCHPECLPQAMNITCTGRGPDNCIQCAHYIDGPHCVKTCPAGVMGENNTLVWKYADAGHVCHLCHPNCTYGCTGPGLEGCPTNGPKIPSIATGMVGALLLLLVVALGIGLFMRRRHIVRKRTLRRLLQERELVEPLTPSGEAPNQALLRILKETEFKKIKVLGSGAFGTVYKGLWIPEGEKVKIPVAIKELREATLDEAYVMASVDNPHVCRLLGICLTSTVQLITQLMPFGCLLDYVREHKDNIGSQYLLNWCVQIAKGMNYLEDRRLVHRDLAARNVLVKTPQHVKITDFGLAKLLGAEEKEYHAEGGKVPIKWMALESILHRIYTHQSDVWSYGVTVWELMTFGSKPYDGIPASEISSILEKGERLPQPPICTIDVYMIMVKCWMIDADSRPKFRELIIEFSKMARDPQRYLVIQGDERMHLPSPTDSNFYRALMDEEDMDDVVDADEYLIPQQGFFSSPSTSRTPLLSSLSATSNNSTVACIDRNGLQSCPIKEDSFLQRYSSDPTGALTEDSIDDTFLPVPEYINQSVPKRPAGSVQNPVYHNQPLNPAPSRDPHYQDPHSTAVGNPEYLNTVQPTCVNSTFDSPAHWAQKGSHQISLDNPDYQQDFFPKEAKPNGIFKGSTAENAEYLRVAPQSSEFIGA
Procedure, shortened: as §1

[4] = target: T4, kinases of the scanMAX Kinase assay panel (Homo sapiens, UniProt Q08345); settings: DDR1; 1 uM
T4 construct: purchased DiscoverX Co. (contract measurement) scanMAX Kinase assay panel
Procedure, shortened: as §1

[5] = target: T5, kinases of the scanMAX Kinase assay panel (Homo sapiens, UniProt Q9C098); settings: DCAMKL3; 1 uM
T5 construct: purchased DiscoverX Co. (contract measurement) scanMAX Kinase assay panel
Procedure, shortened: as §1

[6] = target: T6, kinases of the scanMAX Kinase assay panel (Homo sapiens, UniProt P08069); settings: IGF1R; 1 uM
T6 construct: purchased DiscoverX Co. (contract measurement) scanMAX Kinase assay panel
T6 sequence (P08069 31-1367): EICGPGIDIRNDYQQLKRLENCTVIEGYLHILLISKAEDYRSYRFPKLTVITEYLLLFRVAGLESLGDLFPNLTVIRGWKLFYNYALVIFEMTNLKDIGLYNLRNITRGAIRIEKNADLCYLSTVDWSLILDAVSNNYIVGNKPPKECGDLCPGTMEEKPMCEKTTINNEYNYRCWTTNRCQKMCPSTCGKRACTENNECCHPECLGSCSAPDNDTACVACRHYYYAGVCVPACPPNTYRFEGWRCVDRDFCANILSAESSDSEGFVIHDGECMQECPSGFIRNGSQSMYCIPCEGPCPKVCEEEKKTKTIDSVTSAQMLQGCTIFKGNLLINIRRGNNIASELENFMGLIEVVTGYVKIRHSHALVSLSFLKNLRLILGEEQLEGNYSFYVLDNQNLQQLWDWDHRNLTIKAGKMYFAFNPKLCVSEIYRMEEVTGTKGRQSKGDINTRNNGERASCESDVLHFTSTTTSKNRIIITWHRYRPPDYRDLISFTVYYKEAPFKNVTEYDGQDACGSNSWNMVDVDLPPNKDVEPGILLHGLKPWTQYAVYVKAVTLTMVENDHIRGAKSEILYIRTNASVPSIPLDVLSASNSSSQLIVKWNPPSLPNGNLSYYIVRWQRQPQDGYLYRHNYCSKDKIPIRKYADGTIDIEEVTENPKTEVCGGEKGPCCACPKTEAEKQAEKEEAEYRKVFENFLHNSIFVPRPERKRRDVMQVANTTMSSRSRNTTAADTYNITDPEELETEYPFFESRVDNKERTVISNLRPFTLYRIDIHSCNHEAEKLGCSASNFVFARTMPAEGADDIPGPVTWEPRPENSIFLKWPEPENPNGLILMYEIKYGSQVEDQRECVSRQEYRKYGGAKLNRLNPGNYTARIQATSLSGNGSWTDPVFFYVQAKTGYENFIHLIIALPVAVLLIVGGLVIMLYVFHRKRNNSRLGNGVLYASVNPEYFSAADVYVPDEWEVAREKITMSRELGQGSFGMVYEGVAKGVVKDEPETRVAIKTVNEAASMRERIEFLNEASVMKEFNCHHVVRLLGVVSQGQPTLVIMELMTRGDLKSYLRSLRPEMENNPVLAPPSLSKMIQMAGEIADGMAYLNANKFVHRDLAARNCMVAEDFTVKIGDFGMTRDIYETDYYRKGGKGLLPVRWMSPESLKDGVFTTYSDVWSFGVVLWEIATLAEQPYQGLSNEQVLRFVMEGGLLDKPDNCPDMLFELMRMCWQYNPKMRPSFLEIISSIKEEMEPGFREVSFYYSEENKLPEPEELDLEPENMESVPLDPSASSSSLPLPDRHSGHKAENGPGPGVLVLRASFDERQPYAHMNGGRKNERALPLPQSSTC
Procedure, shortened: as §1

[7] = target: T7, kinases of the scanMAX Kinase assay panel (Homo sapiens, UniProt Q5S007); settings: LRRK2; 1 uM
T7 construct: purchased DiscoverX Co. (contract measurement) scanMAX Kinase assay panel
T7 sequence (Q5S007 whole entry): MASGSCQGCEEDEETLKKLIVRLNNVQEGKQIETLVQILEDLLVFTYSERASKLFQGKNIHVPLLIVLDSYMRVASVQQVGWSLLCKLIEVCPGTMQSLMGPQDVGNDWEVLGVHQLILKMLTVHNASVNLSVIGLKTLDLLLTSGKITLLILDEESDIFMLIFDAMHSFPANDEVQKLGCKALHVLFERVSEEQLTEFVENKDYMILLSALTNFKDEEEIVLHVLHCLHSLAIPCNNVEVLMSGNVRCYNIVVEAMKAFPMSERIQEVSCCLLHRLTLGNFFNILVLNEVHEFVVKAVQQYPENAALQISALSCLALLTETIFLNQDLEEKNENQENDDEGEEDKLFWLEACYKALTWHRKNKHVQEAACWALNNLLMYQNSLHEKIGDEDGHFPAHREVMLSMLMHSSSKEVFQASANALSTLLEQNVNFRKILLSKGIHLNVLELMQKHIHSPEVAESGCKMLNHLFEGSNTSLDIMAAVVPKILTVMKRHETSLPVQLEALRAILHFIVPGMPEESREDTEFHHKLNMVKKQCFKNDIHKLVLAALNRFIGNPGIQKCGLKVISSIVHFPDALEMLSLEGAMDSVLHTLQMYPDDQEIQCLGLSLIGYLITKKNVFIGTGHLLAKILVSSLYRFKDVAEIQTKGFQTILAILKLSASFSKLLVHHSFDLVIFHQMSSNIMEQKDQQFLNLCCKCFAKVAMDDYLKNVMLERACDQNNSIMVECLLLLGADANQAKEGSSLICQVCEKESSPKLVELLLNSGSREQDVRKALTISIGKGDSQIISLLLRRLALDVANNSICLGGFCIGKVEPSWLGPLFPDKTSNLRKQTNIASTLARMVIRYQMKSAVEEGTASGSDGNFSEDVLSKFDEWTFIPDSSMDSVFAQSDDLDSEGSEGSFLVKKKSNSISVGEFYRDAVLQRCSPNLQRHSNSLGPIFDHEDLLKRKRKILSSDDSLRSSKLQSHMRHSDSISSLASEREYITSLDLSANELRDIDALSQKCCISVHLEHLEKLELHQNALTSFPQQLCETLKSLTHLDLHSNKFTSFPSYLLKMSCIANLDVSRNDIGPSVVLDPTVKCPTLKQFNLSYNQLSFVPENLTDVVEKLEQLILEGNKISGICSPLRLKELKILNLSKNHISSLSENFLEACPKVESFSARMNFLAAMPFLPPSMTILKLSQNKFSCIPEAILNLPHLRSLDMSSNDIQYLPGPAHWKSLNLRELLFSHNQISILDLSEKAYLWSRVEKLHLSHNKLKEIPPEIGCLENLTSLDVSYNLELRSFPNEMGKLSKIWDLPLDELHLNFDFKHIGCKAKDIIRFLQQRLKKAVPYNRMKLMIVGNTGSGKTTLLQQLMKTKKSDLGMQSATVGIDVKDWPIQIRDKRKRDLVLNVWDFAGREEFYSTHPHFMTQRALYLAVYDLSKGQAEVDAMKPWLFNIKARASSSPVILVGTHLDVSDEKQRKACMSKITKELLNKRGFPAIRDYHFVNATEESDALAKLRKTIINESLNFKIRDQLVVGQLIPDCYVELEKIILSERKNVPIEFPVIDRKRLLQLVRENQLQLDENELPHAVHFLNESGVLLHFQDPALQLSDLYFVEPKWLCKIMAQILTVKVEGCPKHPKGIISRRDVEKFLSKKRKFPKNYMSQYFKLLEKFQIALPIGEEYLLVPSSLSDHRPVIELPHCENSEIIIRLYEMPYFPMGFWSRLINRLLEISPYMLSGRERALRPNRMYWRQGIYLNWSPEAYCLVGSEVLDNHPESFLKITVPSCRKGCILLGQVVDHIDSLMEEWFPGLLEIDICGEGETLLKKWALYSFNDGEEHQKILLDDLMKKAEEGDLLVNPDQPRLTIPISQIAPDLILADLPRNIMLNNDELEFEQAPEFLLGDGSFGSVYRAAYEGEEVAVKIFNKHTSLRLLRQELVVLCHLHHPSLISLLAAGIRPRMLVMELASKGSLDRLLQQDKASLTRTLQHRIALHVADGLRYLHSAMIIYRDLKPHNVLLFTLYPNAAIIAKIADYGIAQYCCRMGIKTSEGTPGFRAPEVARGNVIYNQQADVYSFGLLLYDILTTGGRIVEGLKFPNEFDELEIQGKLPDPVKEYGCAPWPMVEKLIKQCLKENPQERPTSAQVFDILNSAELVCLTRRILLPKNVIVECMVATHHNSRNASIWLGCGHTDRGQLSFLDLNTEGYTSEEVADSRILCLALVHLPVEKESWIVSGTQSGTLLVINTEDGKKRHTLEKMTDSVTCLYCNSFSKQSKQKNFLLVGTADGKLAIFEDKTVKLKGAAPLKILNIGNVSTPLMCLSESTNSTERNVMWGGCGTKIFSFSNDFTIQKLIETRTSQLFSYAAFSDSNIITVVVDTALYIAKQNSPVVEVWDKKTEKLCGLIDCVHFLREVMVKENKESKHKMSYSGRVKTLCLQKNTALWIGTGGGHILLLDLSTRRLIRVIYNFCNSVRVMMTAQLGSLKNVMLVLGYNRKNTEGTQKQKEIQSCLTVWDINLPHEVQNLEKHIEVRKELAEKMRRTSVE
Procedure, shortened: as §1

[8] = target: T8, kinases of the scanMAX Kinase assay panel (Homo sapiens, UniProt P36888, D835V); settings: FLT3(D835V); 1 uM
T8 construct: purchased DiscoverX Co. (contract measurement) scanMAX Kinase assay panel
T8 sequence (P36888 27-993 D835V): T1 sequence (P36888 27-993 K663Q) with Q637K, D809V
Procedure, shortened: as §1

For `CNc1nc(Nc2ccc(C(=O)N3CCOCC3)cc2OC)nc2[nH]cc(C#N)c12` [Example 1, 2-((2-methoxy-4-(morpholine-4-carbonyl)phenyl)amino)-4-(methylamino)-7H-pyrrolo[2,3-d]pyrimidine-5-carbonitrile], the remaining binding at 1 µM [1] was 92%, the remaining binding at 1 µM [2] was 91% and the remaining binding at 1 µM [3] was 76%. For the same molecule, the remaining binding at 1 µM [4] was 94%, the remaining binding at 1 µM [5] was 98% and the remaining binding at 1 µM [6] was 82%. It also gave a remaining binding at 1 µM [7] of 0% and a remaining binding at 1 µM [8] of 58%.
`CC1(Nc2nc(Nc3cnn([C@H]4CCN(C5COC5)C[C@@H]4F)c3Cl)nc3[nH]cc(C#N)c23)CC1` [Example 52, 2-((5-chloro-1-((3S,4S)-3-fluoro-1-(oxetane-3-yl)piperidine-4-yl)-1H-pyrazole-4-yl)amino)((1-methylcyclopropyl)amino)-7H-pyrrolo[2,3-d]pyrimidine-5-carbonitrile] showed a remaining binding at 1 µM [1] of 0.1%, a remaining binding at 1 µM [2] of 76% and a remaining binding at 1 µM [3] of 94%. The remaining binding at 1 µM [4] was 50%, the remaining binding at 1 µM [5] was 91% and the remaining binding at 1 µM [6] was 19%. It also gave a remaining binding at 1 µM [7] of 0% and a remaining binding at 1 µM [8] of 0%.
`CCNc1nc(Nc2ccc(C(=O)N3CCC(N4CCOCC4)CC3)cc2OC)nc2[nH]cc(C(F)(F)F)c12` [Example 104, (4-((4-(ethylamino)-5-(trifluoromethyl)-7H-pyrrolo[2,3-d]pyrimidine-2-yl)amino)-3-methoxyphenyl)(4-morpholinopiperidine-1-yl)methanone] was tested, and the remaining binding at 1 µM [1] was 64%, the remaining binding at 1 µM [2] was 93% and the remaining binding at 1 µM [3] was 100%. It also gave a remaining binding at 1 µM [4] of 100%, a remaining binding at 1 µM [5] of 90% and a remaining binding at 1 µM [6] of 12%. It also gave a remaining binding at 1 µM [7] of 1.2% and a remaining binding at 1 µM [8] of 0%.
